Assay results from US8604053B2, “TRPV1 antagonists” (AbbVie Inc., priority 2008, dated 2013).

How the values were obtained:
[1] = biological target: T1, CYP2C9 (Homo sapiens, UniProt P11712); assay: CYP2C9 inhibition assay; type: in vitro ADME; details: human liver microsomes, substrate Luciferin-H; for inhibition at 25 min, 2.2 µM: pH 7.4, probe Luciferin-H (100 μM final), read-out: CYP2C9 % inh @ 2.2 μM
T1 construct: human liver microsomes (BD Gentest); tissue BD Gentest; host or cells: human liver microsomes
T1 sequence (P11712 whole entry): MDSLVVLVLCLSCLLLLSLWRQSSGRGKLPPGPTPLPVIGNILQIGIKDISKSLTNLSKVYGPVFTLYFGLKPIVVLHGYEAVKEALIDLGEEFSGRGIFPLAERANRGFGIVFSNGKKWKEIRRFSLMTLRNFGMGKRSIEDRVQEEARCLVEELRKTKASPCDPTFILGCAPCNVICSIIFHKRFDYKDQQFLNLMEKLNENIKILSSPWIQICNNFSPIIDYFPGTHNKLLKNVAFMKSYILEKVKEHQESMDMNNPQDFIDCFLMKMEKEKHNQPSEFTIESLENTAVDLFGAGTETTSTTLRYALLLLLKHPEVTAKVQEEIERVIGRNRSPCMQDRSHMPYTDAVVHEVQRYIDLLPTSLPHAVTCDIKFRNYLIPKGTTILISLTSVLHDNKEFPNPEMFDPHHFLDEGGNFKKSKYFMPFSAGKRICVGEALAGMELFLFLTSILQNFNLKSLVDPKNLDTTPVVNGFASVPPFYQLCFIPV
Method in brief: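 Human liver microsomes (0.4 mg/mL) with NADPH-regenerating system in pH 7.4 phosphate, preincubated with compound 10 min at 37 °C. Luciferin-H (100 μM final) then added for 25 min at 37 °C, 1% DMSO. Luminescence read after Luciferin-H detection reagent; run in duplicate.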

[2] = Assessment of hemodynamic profile in anesthetized rat; type: in vivo; details: i.v. infusion 3, 10 and 30 mg/kg/30 minutes/dose, relative to vehicle control group
Description: Male Sprague-Dawley rats were anesthetized with Inactin, instrumented, and allowed to stabilize. Following a 30 minute baseline period, test compound was infused via intravenous administration at 3, 10, and 30 mg/kg/30 minutes/dose in a low volume PEG-400 vehicle (1 mL/kg) or 20:40:40 dimethylacetamide:propylene glycol:PEG-400 vehicle (1 mL/kg). A separate group of animals received infusion of vehicle alone. Mean arterial pressure (MAP) and heart rate (HR) were observed and recorded.

[3] = biological target: T2, CYP2D6 (Homo sapiens, UniProt P10635); assay: in vitro; type: in vitro ADME; details: microsomes; for inhibition at 25 min, 2.2 µM: human, pH 7.4
T2 construct: human liver microsomes (BD Gentest); tissue BD Gentest; host or cells: human liver microsomes
T2 sequence (P10635 whole entry): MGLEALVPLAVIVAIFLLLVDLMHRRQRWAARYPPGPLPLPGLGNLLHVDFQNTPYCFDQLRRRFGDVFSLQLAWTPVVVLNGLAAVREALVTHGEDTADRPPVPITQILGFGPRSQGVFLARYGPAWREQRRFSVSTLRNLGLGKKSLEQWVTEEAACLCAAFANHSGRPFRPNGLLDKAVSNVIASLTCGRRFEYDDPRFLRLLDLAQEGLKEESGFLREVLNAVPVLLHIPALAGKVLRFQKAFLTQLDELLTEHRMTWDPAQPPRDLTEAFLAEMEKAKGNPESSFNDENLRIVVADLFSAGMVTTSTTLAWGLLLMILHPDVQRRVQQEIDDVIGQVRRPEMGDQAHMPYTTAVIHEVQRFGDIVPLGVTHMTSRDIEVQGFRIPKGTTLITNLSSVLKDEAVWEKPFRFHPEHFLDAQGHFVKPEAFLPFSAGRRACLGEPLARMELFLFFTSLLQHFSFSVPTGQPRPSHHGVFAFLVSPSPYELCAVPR
Description: Stock solutions of test compounds were assayed in 96-well format for their ability to inhibit CYP2C9, CYP2D6, or CYP3A4 mediated metabolism of test substrates. Luciferin-H was used as the substrate for CYP2C9; 3-[2-(N,N-diethyl-N-methylammonium)ethyl]-7-methoxy-4-methylcoumarin (AMMC) was used as the substrate for CYP2D6; 7-benzyloxyquiniline (BZQ) was used as the substrate for CYP3A4. For each subtype, positive controls (sulphaphenazole in the case of CYP2C9; quinidine in the case of CYP2D6, ketoconazole in the case of CYP3A4) were used to validate assay results run in duplicate.
Pre-Incubation Mixture Preparation for CYP2C9 and CYP2D6: A pre-incubation mixture was prepared by combining 100 mM phosphate buffer (9.12 mL; pH 7.4), human liver microsomes (BD Gentest, 240 itt; final concentration: 0.4 mg/mL), and 10 mM nicotinamide adenine dinucleotide phosphate in 65.4 mM MgCl2 hexahydrate (120 μL; final concentration: 125 μM and 818 μM, respectively). To this was mixture is added a ‘regeneration’ mixture (120 μL) of 333 mM glucose-6-phosphate and 40 U/mL glucose-6-phosphate dehydrogenase in 5 mM sodium citrate (final concentration: 4 mM, 0.5 U/mL, and 0.06 mM, respectively).
Substrate Mixture Preparation for CYP2D6: To a solution of 100 mM phosphate buffer, (2.80 mL, pH 7.4) was added 10 mM AMMC in acetonitrile (14 itt; final solution concentration 0.05 mM, final assay concentration 10 μM).
CYP2D6 Inhibiton Assay: To each well in the assay plate containing varying concentrations of test compound or control compound in DMSO (10 μL), Pre-Incubation Mixture (40 μL) was added to the wells and the assay plate was pre-incubated for 10 minutes at 37° C., with shaking or rocking. A pre-read of each well was performed at 390 nm and 460 nm extinction/emission. CYP2D6 Substrate Mixture (10 μL) was added to all wells and the assay plate was incubated for an additional […] at 37° C., with shaking or rocking. Final DMSO concentration was 1%. A post-read of each well was then performed at 390 nm and 460 nm extinction/emission.

[4] = Rat telemetry protocol, core body temperature; type: in vivo; details: core body temperature of rats one hour post dosing, 100 μmol/kg p.o., relative to vehicle
Method in brief: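 Male Sprague Dawley rats (225–250 g) with intraperitoneal telemetry transmitters, 2-week recovery. Single oral 100 μmol/kg dose in 10% EtOH/20% Tween-80/70% PEG-400; core body temperature recorded every 15 min over 24 h.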

Row | Compound | inhibition at 25 min, 2.2 µM [1] [%] | Change in MAP or HR ≧ 15% ? [2] | inhibition at 25 min, 2.2 µM [3] [%] | Δ Temp (° C.) [4] [°C] | CYP2C9 % inh @ 2.2 μM [1] [%] | CYP2D6 % inh @ 2.2 μM) [3] [%]
1 | Cc1cc2c(NC(=O)N[C@@H]3CC(C)(C)Oc4c(F)cccc43)cccc2cn1 [Example 119, N-[(4R)-8-fluoro-2,2-dimethyl-3,4-dihydro-2H-chromen-4-yl]-N′-(3-methylisoquinolin-5-yl)urea] | 2.1 | Yes (An observed increase or decrease of greater than 15% in MAP (mean arterial pressure) or HR (heart rate) in one or more of the animals in the test group relative to the vehicle control group is indicated as “Yes” in the table) | 8.7 | 0.0 |  | 
2 | N-[(4R)-2,2-diethyl-6-fluoro-3,4-dihydro-2H-chromen-4-yl]-N-(3-methylisoquinolin-5-yl)urea [Example 56] |  | No (an observed increase or decrease of less than or equal to 15% in MAP (mean arterial pressure) or HR (heart rate) in the test group of animals relative to the vehicle control group is indicated as “No” in the table) |  | 0.2 | 20 | 14
3 | Cc1cc2c(NC(=O)N[C@@H]3C[C@@](C)(CF)Oc4cc(Cl)ccc43)cccc2cn1 (single isomer, unassigned) [Example 122] | 20 | No (an observed increase or decrease of less than or equal to 15% in MAP (mean arterial pressure) or HR (heart rate) in the test group of animals relative to the vehicle control group is indicated as “No” in the table) | 5 | 0.0 |  | 
4 | Cc1cc2c(NC(=O)N[C@@H]3CC(C)(C)Oc4c3ccc(F)c4Cl)cccc2cn1 [Example 110, N-[(4R)-8-chloro-7-fluoro-2,2-dimethyl-3,4-dihydro-2H-chromen-4-yl]-N′-(3-methylisoquinolin-5-yl)urea] | 13 | Yes (An observed increase or decrease of greater than 15% in MAP (mean arterial pressure) or HR (heart rate) in one or more of the animals in the test group relative to the vehicle control group is indicated as “Yes” in the table) | 1.4 | −1.1 |  | 
5 | Cc1cc2c(NC(=O)N[C@@H]3C[C@](C)(CF)Oc4cc(Cl)ccc43)cccc2cn1 (single isomer, unassigned) [Example 121] | 15 | Yes (An observed increase or decrease of greater than 15% in MAP (mean arterial pressure) or HR (heart rate) in one or more of the animals in the test group relative to the vehicle control group is indicated as “Yes” in the table) | 8 | 0.0 |  | 
6 | Cc1cc2c(NC(=O)N[C@@H]3CC(C)(C)Oc4cc(Cl)ccc43)cccc2cn1 [Example 97, N-[(4R)-7-chloro-2,2-dimethyl-3,4-dihydro-2H-chromen-4-yl]-N′-(3-methylisoquinolin-5-yl)urea] | 17 | Yes (An observed increase or decrease of greater than 15% in MAP (mean arterial pressure) or HR (heart rate) in one or more of the animals in the test group relative to the vehicle control group is indicated as “Yes” in the table) | 19 | 0.4 |  | 
7 | N-[(4R)-2,2-diethyl-8-fluoro-3,4-dihydro-2H-chromen-4-yl]-N-(3-methylisoquinolin-5-yl)urea [Example 62] |  | No (an observed increase or decrease of less than or equal to 15% in MAP (mean arterial pressure) or HR (heart rate) in the test group of animals relative to the vehicle control group is indicated as “No” in the table) |  | −0.5 | 22 | 9.1
8 | Cc1cc2c(NC(=O)N[C@@H]3CC(CF)(CF)Oc4cc(Cl)ccc43)cccc2cn1 [Example 84, N-[(4R)-7-chloro-2,2-bis(fluoromethyl)-3,4-dihydro-2H-chromen-4-yl]-N′-(3-methylisoquinolin-5-yl)urea] | 3.7 | No (an observed increase or decrease of less than or equal to 15% in MAP (mean arterial pressure) or HR (heart rate) in the test group of animals relative to the vehicle control group is indicated as “No” in the table) | 49 | 0.0 |  | 
